# Measured values as given in patent publication US4374846A, “N-Amino alkyl indole compounds compositions containing same, and a method of using same in therapy of disorders of gastrointestinal motility” (Kali-Chemie Pharma GmbH, priority 1979, dated 1983).
# Where two headings read alike, the source gives them in different places.
# Legend:
# [1] = tested on: stomach (gastric peristalsis); experiment: Testing of the gastric peristalsis (measurements of the gastric pressure); assay type: in vivo, rats; details: for inhibition in vivo at 20 mg/kg: Rattus norvegicus, ip, read-out: Frequency decrease in %
# From the text: To determine the functioning of the gastric peristalsis, rats weighing about 200 g. are narcotized by means of ketamine hydrochloride and xylazine. A catheter is introduced into the Vena jugularis of the narcotized rats and a tracheal catheter into their trachea. A stomach probe is inserted into their stomach and tied thereto. Said probe is connected via a three-way cock with a Statham pressure imparting device (P 23 DB). The stomach is sealed off by a ligature at the pylorus and at the cardia. The stomach is filled with 3 ml. of an 0.9% aqueous sodium chloride solution. The pressure waves produced by the stomach are continuously registered by a suitable recording device such as by a Watanabe Multicorder (MC 641). In order to determine the effect of the compounds to be tested, they are dissolved in physiological sodium chloride solution or are suspended in Tylose MH 50 solution. Said solutions or suspensions are administered intraperitoneally to the rats in a dosis of 20 mg./kg. The amplitudes and frequencies of the pressure wave-like movements of the stomach as they occur before and after administration of the compound to be tested, are compared.
# [2] = Determination of the acute toxicity (seven-day, single intraperitoneal dose); details: in vivo, ip, white NMRI mouse, fasting, single i.p. dose, probit analysis
# Experimental: The acute seven-day toxicity is determined by intraperitoneal administration of a single dose of the respective compound to a fasting white NMRI mouse. The LD50 -values are calculated via EDV by a probit analysis as described in the book "Grundbegriffe der Biometrie" (Basic biometrical definitions) by L. Cavalli-Sforza, page 153 et seq., published by Gustav Fischer Verlag, Stuttgart, 1964.
# [3] = gastric pressure waves, narcotized rats, 20 mg./kg. intraperitoneally, before vs after administration
Structure (SMILES),"inhibition in vivo at 20 mg/kg [1, 3] [%]","Factor of the increase in amplitude [1, 3]",LD50 at 168 h [2] [mg/kg],inhibition in vivo at 20 mg/kg [1] [%]
"COc1c(C(N)=O)n(CCN(C)C)c2ccccc12 [(L), 1-(β-dimethylaminoethyl)-2-amino carbonyl-3-methoxy indole]",28,13.9,68,–
"COC(=O)c1c(OC)c2ccccc2n1CCCCN(C)C.Cc1ccc(S(=O)(=O)O)cc1 [(H), 1-(δ-dimethylaminobutyl)-2-methoxy carbonyl-3-methoxy indole toluene-4-sulfonate]",–,3.5,164,11
"COc1c(C(=O)O)n(CCN(C)C)c2ccccc12 [(K), 1-(β-dimethylaminoethyl)-2-hydroxy carbonyl-3-methoxy indole]",21,3.6,967,–
"COC(=O)c1c(OC)c2ccc(C)cc2n1CCN(C)C.Cl [(B), 1-(β-dimethylaminoethyl)-2-methoxy carbonyl-3-methoxy-6-methyl indole hydrochloride]",7,22.7,68,–
"CCOC(=O)c1c(OCC)c2ccc(Cl)cc2n1CCN(C)C.Cc1ccc(S(=O)(=O)O)cc1 [(F), 1-(β-dimethylaminoethyl)-2-ethoxy carbonyl-3-ethoxy-6-chloro indole toluene-4-sulfonate]",–,10.9,226,5
"COC(=O)c1c(OC)c2ccccc2n1CCN(C)C.Cl [(A), 1-(β-Dimethylaminoethyl)-2-methoxy carbonyl-3-methoxy-indole hydrochloride]",3.3,6.2,171,–
"CCOc1c(C(=O)OC)n(CCN(C)C)c2ccc(Cl)cc12.Cl [(C), 1-(β-dimethylaminoethyl)-2-methoxy carbonyl-3-ethoxy-5-chloro indole hydrochloride]",9,1.4,141,–
"CNC(=O)c1c(OC)c2ccccc2n1CCN(C)C [(M), 1-(β-dimethylaminoethyl)-2-methylamino carbonyl-3-methoxy indole]",13,21.4,68,–
"COC(=O)c1c(OC)c2ccccc2n1CCCN1CCCCC1 [(I), 1-(γ-N-piperidinopropyl)-2-methoxy carbonyl-3-methoxy indole maleinate]",15,8.6,141,–
"COC(=O)c1c(OC)c2ccccc2n1CCCNC(C)C.Cl [(G), 1-(γ-isopropylaminopropyl)-2-methoxy carbonyl-3-methoxy indole hydrochloride]",29,8.3,91,–
"COC(=O)c1c(OCc2ccccc2)c2cc(Cl)ccc2n1CCN(C)C.Cc1ccc(S(=O)(=O)O)cc1 [(E), 1-(β-dimethylaminoethyl)-2-methoxy carbonyl-3-benzyloxy-5-chloroindole toluene-4-sulfonate]",–,0.6,283,-2
"COC(=O)c1c(OC(C)C)c2cc(C)ccc2n1CCN(C)C.Cl [(D), 1-(β-dimethylaminoethyl)-2-methoxy carbonyl-3-isopropyloxy-5-methyl indole hydrochloride]",19,6.9,137,–
